Where “and” joins values, the source holds several entries; their conditions need not be identical. Equal entries are not always repeated.
Legend:
[1] = Molar enthalpy of transition or fusion; settings: Crystal; DSC
[2] = Crystal; for vapor or sublimation pressure: Calculated from knudsen effusion weight loss; for Normal melting temperature: DTA
[3] = molar enthalpy of vaporization or sublimation; settings: 298.15 K; Crystal; Static calorimetry

Nc1ccc2c(c1)Cc1ccccc1-2 [2-aminofluorene]
Settings	Molar enthalpy of transition or fusion [kcal/mol]	Normal melting temperature [°C]	molar enthalpy [kcal/mol]
[1]	5.69	–	–
[2]	–	127.79	–
[3]	–	–	26.4

[2]
Settings	vapor or sublimation pressure
345.16 K	0.000121 kPa and 0.00012 kPa and 0.000118 kPa
347.13 K	0.000155 kPa and 0.000154 kPa and 0.000148 kPa
349.17 K	0.000189 kPa and 0.000182 kPa and 0.00019 kPa
351.15 K	0.000238 kPa and 0.000226 kPa
353.1 K	0.000286 kPa and 0.000283 kPa and 0.000291 kPa
355.17 K	0.00035 kPa and 0.000348 kPa and 0.000362 kPa
357.13 K	0.000447 kPa and 0.000436 kPa and 0.000432 kPa
359.16 K	0.000546 kPa and 0.000522 kPa and 0.000551 kPa
361.13 K	0.000675 kPa and 0.000647 kPa and 0.000664 kPa
363.1 K	0.000811 kPa and 0.000789 kPa and 0.000805 kPa
365.09 K	0.000994 kPa and 0.000997 kPa and 0.000981 kPa

O=[N+]([O-])c1ccc2c(c1)Cc1ccccc1-2 [2-nitro-9H-fluorene]
Settings	Molar enthalpy of transition or fusion [kcal/mol]	Normal melting temperature [°C]	molar enthalpy [kcal/mol]
[1]	5.92	–	–
[2]	–	156.74	–
[3]	–	–	27.3

[2]
Settings	vapor or sublimation pressure
357.16 K	9e-05 kPa and 9.2e-05 kPa
359.13 K	0.000115 kPa and 0.000114 kPa and 0.000111 kPa
361.11 K	0.000141 kPa and 0.000139 kPa and 0.00014 kPa
363.16 K	0.000172 kPa and 0.00017 kPa
365.14 K	0.000217 kPa and 0.000209 kPa and 0.000213 kPa
367.11 K	0.000261 kPa and 0.000258 kPa
369.16 K	0.000315 kPa and 0.000322 kPa
371.13 K	0.000398 kPa and 0.000377 kPa and 0.000392 kPa
373.1 K	0.000478 kPa and 0.000472 kPa and 0.000474 kPa
375.15 K	0.000565 kPa and 0.000561 kPa and 0.000578 kPa
377.14 K	0.000696 kPa and 0.000707 kPa and 0.000678 kPa
379.12 K	0.000839 kPa and 0.000844 kPa and 0.000829 kPa

— the NIST ThermoML archive (doi:10.1016/j.jct.2014.03.005)
